US20090253757A1, “Plant protection agents” (priority 1996, published 2009)

System: Erysiphe graminis
Assay: Activity against Erysiphe graminis on barley (residual protective / systemic)
Assay type: in vivo
Text: A synergistic effect is present if the activity of the active ingredient combination is greater than the sum of activities of the individual components. The activity E to be expected for a given active ingredient combination obeys the so-called COLBY formula and may be calculated as follows (COLBY, S. R. “Calculating synergistic and antagonistic responses of herbicide combination”. Weeds, Vol. 15, pages 20-22; 1967): ppm=milligrams active ingredient (=ai) per litre spray mixture X=% activity from active ingredient I during application of p ppm of active ingredient Y=% activity from active ingredient II during application of q ppm of active ingredient The expected (additive) activity of active ingredients I+II during application of […] active ingredient is, according to Colby If the activity actually observed (O) is greater than the expected activity (E), then the combination is super-additive in its activity, i.e. there is a synergistic effect ([…] factor). Barley plants of approximately 8 cm height are sprayed until dripping wet with an aqueous spray mixture prepared from wettable powder of the active ingredient mixture, and 3 to 4 hours later are dusted with conidia of the fungus. The infected plants are placed in a greenhouse at […]. 12 days after infection, the fungal attack is evaluated. An aqueous spray mixture prepared from wettable powder of the active ingredient mixture is poured onto barley plants of approximately 8 cm height. […] 48 hours later, the plants are dusted with conidia of the fungus. The infected plants are placed in a greenhouse at 22° C. 12 days after infection, the fungal attack is evaluated.

Structure (SMILES)	% activity found O (active ingredient I 0.1 mg/litre alone) [%]	% activity found O (active ingredient I 1.0 mg/litre alone) [%]	inhibition at 0.1 µg/mL (Blumeria graminis, active ingredient IIA 0.1 mg/litre alone, read-out: % activity found O) [%]	inhibition at 0.5 µg/mL (Blumeria graminis, active ingredient IIA 0.5 mg/litre alone, read-out: % activity found O) [%]	inhibition at 1 µg/mL (Blumeria graminis, active ingredient IIA 1.0 mg/litre alone, read-out: % activity found O) [%]	inhibition at 10 µg/mL (Blumeria graminis, active ingredient IIA 10.0 mg/litre alone, read-out: % activity found O) [%]
CON=C(C(=O)OC)c1ccccc1CON=C(C)c1cccc(C(F)(F)F)c1 [I, 2-[α-{[(α-methyl-3-trifluoromethyl-benzyl)imino]-oxy}-o-tolyl]-glyoxylic acid-methylester-O-methyloxime]	6	30	–	–	–	–
Fc1ccc(Oc2ccnc3cc(Cl)cc(Cl)c23)cc1 [IIA, 5,7-dichloro-4-(4-fluorophenoxy)quinoline]	–	–	4	6	8	21
